From patent US8334316B2, “Substituted organosulfur compounds and methods of using thereof” (ACEA Biosciences, Inc., priority 2004, dated 2012)
Values joined by “and” are separate entries in the source; they are usually repeats but may differ in a detail not shown here. Equal entries are not always repeated. Marks after values point to notes of the source that are not given here.

Legend:
[1] = test system: ao10/17 human ovarian cancer; assay: ao10/17 human ovarian cancer xenograft in nude mice (Example 4); assay type: in vivo; settings: for Body weight of mice / Mice with palpable tumor / total mice / Tumor volume (cm^3): 50 mg/kg iv x7 qd
Description: Only female mice were used in this study. […] The high, middle and low doses of ACEA100108 were 50, […] and 8 mg/kg/d, respectively.
Preparation and Administration of Test Compounds. […] The high, middle and low dose of compound ACEA100108 was 50, 20 and 8 mg/kg, respectively.
The tumor tissues were grounded in normal saline (1:6 for tumor volume to saline volume) and tumor cell suspensions were prepared in the normal saline.
For the human ovarian cancer xenograft model, all used materials, including animal food, animal cage, supporting materials and apparatus contacted by animals, were high-pressure sterilized. Nude mice were maintained in laminar flow shelves under SPF condition. After tumor transplantation, mouse weight and tumor size in each compound dosage group were dynamically monitored and plotted. The tumor size was determined by measuring the major axis (a) and minor axis (b) of the tumor, and tumor volume was calculated according to the equation (3) in Example 3.

[2] = test system: Bcap-37 human breast cancer; assay: Bcap-37 human breast cancer xenograft in nude mice, dosing from 24 h after transplantation (Example 3); assay type: in vivo
Text: Both male and female mice were used. […] Test control. […] Preparation and Administration of Test Compounds. […] For human tumor xenograft model, all used materials, including animal food, animal cage, supporting materials and apparatus contacted by animals, were high-pressure sterilized. Nude mice were maintained in laminar flow shelves under SPF condition. After tumor transplantation, mouse weight and tumor size in each compound dosage group were dynamically monitored and plotted.

[3] = test system: microtubules in COS cells; assay: Microtubule network in cultured COS cells (anti-tubulin immunofluorescence, confocal microscopy); assay type: cell-based; settings: for Microtubule network appearance: 4 hours exposure
Description: Cell Culture and Immunocytochemistry. COS cells were grown in DMEM media supplemented with non-essential amino acids, 10% FBS, antibiotic-antimycotic (Gibco BRL) at 37° C. and 5.5% CO2. […] Cells were then rinsed once with warm PBS, fixed with cold methanol, rinsed again in PBS and blocked overnight at 4° C. in PBT (PBS, 1% BSA, 0.5% Triton X-100). All subsequent stains and washes were done in PBT at room temperature unless stated otherwise. Cells were stained with the anti-tubulin mouse antibody DM-1 at 1:1000 for 1 hour, washed four times for 15 minutes each and then treated with Cy-3 conjugated goat anti mouse antibody at 1:100 for 1 hour in the dark. Next, samples were washed four times for 15 minutes each in PBT in the dark followed by a final 15 minute wash in PBS in the dark. Samples were then viewed by laser scanning confocal microscopy.

[4] = 50 mg/kg/d iv x7 qd, vs solvent control
[5] = 50 mg/kg iv x7 qd, 7 days after transplantation

c1ccc(CSSSCc2ccccc2)cc1 [DBTS, Dibenzyl trisulfide]
Body weight of mice ([1]; 0 d (beginning), listed as ACEA100101): 17.3 g and 17.3 ± 1 g | Mice with palpable tumor / total mice ([1]; 7 D after transplantation): 2/6 | Tumor volume (cm^3) ([1]; 7 D after transplantation): 0.01 cm^3 | Body weight of mice ([1]; 7 d): 17.3 ± 1.4 g | Body weight of mice ([1]; 14 d): 18.8 ± 1.2 g | Mice with palpable tumor / total mice ([1]; 14 d): 6/6 | Tumor volume (cm^3) ([1]; 14 d): 0.01 cm^3 | Body weight of mice ([1]; 21 d): 19.5 ± 1 g | Tumor volume (cm^3) ([1]; 21 d): 0.129 ± 0.01 cm^3 | Tumor volume (cm^3) ([1]; 24 d): 0.225 ± 0.04 cm^3 | Body weight of mice ([1]; 24 d (end), listed as ACEA100101): 21.3 g and 21.3 ± 1.2 g | Tumor weight ([1]; 50 mg/kg/d iv x7 qd): 0.602 ± 0.10 g | tumor inhibition rate % [1, 4]: 57.30% | Mice with palpable tumor / total mice [2, 5]: 2/6†† | Tumor volume (cm^3) [2, 5]: 0.01 cm^3 | Tumor volume (cm^3) ([2]; 50 mg/kg iv x7 qd, 14 d): 0.014 ± 0.01 cm^3 | Tumor volume (cm^3) ([2]; 50 mg/kg iv x7 qd, 21 d): 0.079 ± 0.01 cm^3 | Tumor volume (cm^3) ([2]; 50 mg/kg iv x7 qd, 24 d (end), listed as ACEA100101): 0.196 cm^3 and 0.196 ± 0.02 cm^3 | TV inhibition rate % T/C ([2]; 50 mg/kg/d iv x7 qd): 11.17% | Tumor weight ([2]; 50 mg/kg/d iv x7 qd): 0.568 ± 0.07 g | Body weight of mice ([2]; 50 mg/kg/d iv x7 qd, 0 day (beginning), listed as ACEA100101): 18.0 g and 18 ± 1 g | Body weight of mice ([2]; 50 mg/kg/d iv x7 qd, 7 day): 18.7 ± 0.8 g | Body weight of mice ([2]; 50 mg/kg/d iv x7 qd, 14 d): 20.3 ± 0.8 g | Body weight of mice ([2]; 50 mg/kg/d iv x7 qd, 21 d): 22 ± 0.6 g | Body weight of mice ([2]; 50 mg/kg/d iv x7 qd, 24 d (end), listed as ACEA100101): 22.8 g and 22.8 ± 1.6 g | tumor inhibition rate % [2, 4]: 66.98% | Microtubule network appearance [3]: The microtubule network is completely disrupted | Cell viability / microtubule network ([3]; 24 hours, 6 uM or 18 uM): no cells are viable

Cc1cccc(CSSSCc2cccc(C)c2)c1 [ACEA100116, di(m-methylbenzyl)trisulfide]
Microtubule network appearance [3]: at the two higher concentrations, microtubules appear very short and abnormal | Microtubule network / cell appearance ([3]; 24 hours, 1 uM): appear relatively normal | Cell viability ([3]; 24 hours, 3 uM or 9 uM): essentially all cells treated with 3 uM or 9 uM were dead
